Patent publication US8765953B2, “Compounds and methods for the treatment of pain and other diseases” (Aquilus Pharmaceuticals, Inc., priority 2008, dated 2014)

What was measured:
[1] = system: spinal nerve ligation (SNL) mouse model; assay: Intrathecal (i.t.) SNL-mouse model of neuropathic pain, von Frey mechanical allodynia; assay type: in vivo, FVB male mice
From the text: To measure the neuropathic pain inhibiting affects of the MMP inhibitors of the present invention, the spinal nerve ligation (SNL) mouse model was run on a select number of compounds. This model which began with the work of Bennet and coworkers (Bennet, G. J. et al. Pain, 33, (1988), 87-107) and was optimized by Kim and Chung (Kim, S. H.; Chung, J. M. Pain, 50, (1992), 355-363) entails first, under magnification, the removal of one-third of the transverse process and then identifying and then dissecting free the L5 spinal nerve from the adjacent L4 spinal nerve in the mouse. The L5 spinal nerve is then tightly ligated using 6.0 silk suture. The nerve injury leads to hyperalgesia which manifests itself by enhanced responses to mechanical, heat and/or cooling stimuli. In this case, mechanical hyperalgesia is tested via Von Frey monofilaments in which filaments of varying thicknesses and bending force are individually applied to the plantar surface of the foot of the mouse. The threshold force necessary for paw withdrawal decreases dramatically after the nerve surgery. Potent pain inhibitors will reverse this affect resulting in greater force needing to be applied to cause the rodent paw to withdrawal.
Following preoperative baseline (Day −2) paw threshold measurement, FVB male mice were subjected to SNL injury (Day −1). The next day (Day 0) after SNL surgery, the animals were tested for post-operative baseline threshold measurements for mechanical allodynia; and the animals were then randomly assigned to one of 3 treatment groups (see Table 9). Over the course of the study, paw withdrawal threshold of these animals was measured in response to mechanical stimulation using the von Frey Monofilament Test.
To avoid systemic effects of the MMP inhibitors, the MMP inhibitors of the present invention were delivered into the cerebral spinal fluid (CSF) space around lumbosacral spinal cord via intrathecal (i.t.) administration, with the idea of targeting MMPs in the DRG, spinal cord, and spinal CSF. Intrathecal MMP inhibitor administration could then target not only spinal cord cells but also DRG cells. Each intrathecal (i.t.) injection was carried out according to the technique of Hylden and Wilcox (Hylden J L, Wilcox G L. Eur. J. Pharmacol., 67, (1980), 313-6) 5.2 mg of each of the MMP inhibitors were first dissolved in 140 microliters of DMSO and then put into 1260 microliters of 0.5% hydroxypropyl cellulose (HPC) in water to make a fine suspension composed of compound in 10% DMSO-0.5% hydroxypropyl cellulose. 10 microliters of the mixture was injected into the intrathecal space of male FVB mice (weighing 22-25 grams each and obtained from the Jackson Laboratories, Bar Harbor, Me.), by lumbar puncture in a volume of 10 μl/mouse using a Hamilton microsyringe via a 30 gauge needle inserted between lumbar vertebrae 5 and 6. In brief, each animal was held firmly by the pelvic girdle in one hand, while the needle was inserted into the tissue on the right side of the L5 or L6 spinous process. The needle was moved forward and slipped into the groove between the spinous process and transverse process and gently moved forward to the intervertebral space at ˜10° angle. As the needle was inserted (˜0.5 cm) within the vertebral column a tail flick was evident, and the solution was then injected.
Tactile Allodynia Test. Mechanical allodynia was measured using the calibrated von Frey filaments (Semmes-Weinstein monofilaments; Stoelting, Wood Dale, Ill., U.S.A.). The plantar surface of the left injured paw of each animal was tested as described by Chaplan et al. (Journal of Neuroscience Methods, 53, (1994), 55-63). The Fifty percent paw withdrawal threshold response was determined by sequentially increasing or decreasing the stimulus strength according to the “up-down method” of Dixon (Annual Review Pharmacology Toxicology, 20, (1980), 441-462). […]

[2] = In-vitro mouse microsomal stability; assay type: in vitro ADME; conditions: mouse microsomes, 1 microMolar compound, at T = 60 minutes
Description: Human and mouse microsomal stability was determined for select compounds following the method of Houston (Houston, J. B; Biochem. Pharmacol. 47, (1994),1469).
1 μM concentration of compound and separate human and mouse microsomes (0.3 mg/mL, BD bioscience) were used in the in-vitro assay. To ensure proper energy supply for microsomal degradation of compound, an energy regenerating system comprised of 100 mM potassium phosphate, 2 mM NADPH, 3 mM MgCl2, pH=7.4. and the microsomal protein is added to each sample and the resulting suspension is then incubated in duplicate for 60 min at 37° C. in a rotary shaker. A control is run for each test agent in duplicate omitting NADPH to detect NADPH-free degradation. At T=0 and T=60 min., an aliquot is removed from each experimental and control reaction and then mixed with an equal volume of ice-cold Stop Solution (consisting of 0.3% acetic acid in acetonitrile containing haloperidol and diclofenac as internal standards). Stopped reactions are then incubated for at least ten minutes at −20° C., and an additional volume of water is then added. The samples are then centrifuged to remove precipitated protein, and the supernatants are then analyzed by LC-MS/MS to determine the percentage of compound remaining. The LC-MS/MS system used was an Agilent 6410 mass spectrometer coupled with an Agilent 1200 HPLC and a CTC PAL chilled autosampler, all controlled by MassHunter software (Agilent), or an ABI2000 mass spectrometer coupled with an Agilent 1100 HPLC and a CTC PAL chilled autosampler, all controlled by Analyst software (ABI). After separation on a C18 reverse phase HPLC column (Agilent, Waters, or equivalent) using an acetonitrile-water gradient system, peaks were analyzed by mass spectrometry (MS) using ESI ionization in MRM mode.

% Mean Remaining Parent with NADPH (%) ([2]; with NADPH): 83%
% Mean Remaining Parent without NADPH (%) ([2]; without NADPH (control)): 88%
SMILES: Cc1ccc(C#Cc2ccc(S(=O)(=O)N[C@H](Cc3c[nH]c4ccccc34)C(=O)O)s2)cc1 [Compound 5, (R)-3-(1H-Indol-3-yl)-2-(5-p-tolylethynyl-thiophene-2-sulfonylamino)-propionic acid]
Paw withdrawal threshold, mean, Day 5 ([1]; i.t. 10 μl/mouse daily day 1-6): 0.079 grams
Paw withdrawal threshold, mean, Day 7 ([1]; i.t. 10 μl/mouse daily day 1-6): 0.190 grams
Paw withdrawal threshold, mean, Day 1 ([1]; i.t. 10 μl/mouse daily day 1-6, testing 2 hr after first i.t. injection): 0.098 grams
Paw withdrawal threshold, mean, Day 0 Postoperative Baseline ([1]; i.t. study, post operative injury baseline, before treatment): 0.050 grams
Paw withdrawal threshold, mean, Day(-2) Pre-operative Baseline ([1]; i.t. study, testing prior to SNL injury, before treatment): 1.265 grams
